Experimental findings from patent US7034056B2, “Aryl and biaryl compounds having MCH modulatory activity” (Pharmacopeia Drug Discovery, inc., priority 2001, dated 2006) are described below.

The target in this experiment is T1, hMCHR (MCH receptor) (Homo sapiens, UniProt Q99705).
T1 construct: (or internally produced); host or cells: CHO (Chinese hamster ovary) cells, membrane preparation
Description: MCH Assay PCOP Protocol ([125I]-MCH SPA binding to hMCHR-CHO membranes).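 As to Activity (Ki range): A 0.4–50 nM B 51–500 nM C 501–2500 nM.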 The method in brief: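 SPA binding with 10 μg hMCHR-CHO membranes and WGA-SPA beads in 25 mM HEPES pH 7.4, 10 mM NaCl, 10 mM MgCl2, 5 mM MnCl2, 0.1% BSA.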

Setting [1] is: [125I]-MCH 0.5 nM, hMCHR-CHO membranes, read-out: Activity (ranges of Ki values).
Setting [2] is: [125I]-MCH binding to hMCHR-CHO membranes, class symbols for ranges of Ki, read-out: Activity (Ki range).

Like-named read-outs stand apart in the source and are kept apart here.

T1 sequence (Q99705 whole entry): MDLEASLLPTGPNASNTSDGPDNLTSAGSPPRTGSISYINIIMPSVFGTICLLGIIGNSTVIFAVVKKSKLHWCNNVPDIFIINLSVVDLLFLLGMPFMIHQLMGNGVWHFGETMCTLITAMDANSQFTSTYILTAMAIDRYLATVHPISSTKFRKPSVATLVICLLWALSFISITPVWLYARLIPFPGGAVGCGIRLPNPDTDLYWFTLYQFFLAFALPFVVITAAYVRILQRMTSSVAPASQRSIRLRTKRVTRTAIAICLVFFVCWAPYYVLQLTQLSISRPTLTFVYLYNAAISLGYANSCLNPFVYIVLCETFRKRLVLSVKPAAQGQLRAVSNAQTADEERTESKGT

As to `CC(=O)NC1CCN(CCC(CNC(=O)Nc2cc(Cl)cc(Cl)c2)c2ccc(Cl)c(Cl)c2)C1` (stereo not drawn) [Example 210], the Ki (as a rule, a dissociation constant, usually derived from enzyme kinetics or from competition with a known ligand) under setting [1] is 501 to 2500 nM.
Turning to `CS(=O)(=O)NC1CCN(CCC(CNC(=O)Nc2cc(Cl)cc(Cl)c2)c2ccc(Cl)c(Cl)c2)C1` (stereo not drawn) [Example 211], the Ki under setting [1] lay within 501 to 2500 nM.
With `O=C(NCC(CCN1CCC(NC(=O)c2cccs2)CC1)c1ccc(Cl)c(Cl)c1)Nc1cc(Cl)cc(Cl)c1` (stereo not drawn) [Example 212], the Ki under setting [1] was 501 to 2500 nM.
Regarding `COCC(=O)NC1CCN(CCC(CNC(=O)Nc2cc(Cl)cc(Cl)c2)c2ccc(C)cc2)CC1` (stereo not drawn) [Example 213], the inhibitory constant (Ki) under setting [1] lay within 501 to 2500 nM.
Still for that read-out and setting: under `O=C(NCC(CCN1CCC(NC(=O)c2ccno2)CC1)c1ccc(Cl)cc1)Nc1cc(Cl)cc(Cl)c1` (stereo not drawn) [Example 214] stands 501 to 2500 nM; under `CC(=O)NC1CCN(CCC(CNC(=O)Nc2cc(Cl)cc(Cl)c2)c2ccc(C)cc2)C1` (stereo not drawn) [Example 215], 501 to 2500 nM; under `O=C(NCC(CCN1CCC(NC(=O)c2cccs2)CC1)c1ccc(Cl)cc1)Nc1cc(Cl)cc(Cl)c1` (stereo not drawn) [Example 216], 501 to 2500 nM.
`O=C(NCC(CCN1CCC(NC(=O)c2ccno2)CC1)c1ccc(Cl)c(Cl)c1)Nc1cc(Cl)cc(Cl)c1` (stereo not drawn) [Example 217]: the Ki under setting [2] lay within 501 to 2500 nM.
On the same count and under the same terms, under `CN(C)CCCNCCC(CNC(=O)Nc1cc(Cl)cc(Cl)c1)c1ccc(-c2cccc(C#N)c2)cc1` (stereo not drawn) [Example 218] stands 0.4 to 50 nM; under `CN(C)CCCNCCC(CNC(=O)Nc1cc(Cl)cc(Cl)c1)c1ccc(-c2cccc([N+](=O)[O-])c2)cc1` (stereo not drawn) [Example 220], 0.4 to 50 nM; under `CN(C)CCCNCCC(CNC(=O)Nc1cc(Cl)cc(Cl)c1)c1ccc(-c2cccc(Cl)c2)cc1` (stereo not drawn) [Example 221], 0.4 to 50 nM.
On to `CN(C)CCCNCCC(CNC(=O)Nc1cc(Cl)cc(Cl)c1)c1ccc(-c2ccc3c(c2)OCO3)cc1` (stereo not drawn) [Example 223], for which the Ki under setting [2] lay in the range of 0.4 to 50 nM.
Still for that read-out and setting: under `CN(C)CCCNCCC(CNC(=O)Nc1cc(Cl)cc(Cl)c1)c1ccc(-c2ccc(F)c(Cl)c2)cc1` (stereo not drawn) [Example 224] stands 0.4 to 50 nM; under `O=C(NCC(CCNC1CCCC1)c1ccc(-c2ccc(F)c(Cl)c2)cc1)Nc1cc(Cl)cc(Cl)c1` (stereo not drawn) [Example 226], 51 to 500 nM; under `O=C(NCC(CCNC1CCCC1)c1ccc(-c2ccc3c(c2)OCO3)cc1)Nc1cc(Cl)cc(Cl)c1` (stereo not drawn) [Example 227], 51 to 500 nM.
On the same count and under the same terms, under `COc1cc(-c2ccc(C(CCNC3CCCC3)CNC(=O)Nc3cc(Cl)cc(Cl)c3)cc2)cc(OC)c1OC` (stereo not drawn) [Example 228] stands 51 to 500 nM.
Regarding `O=C(NCC(CCNC1CCCC1)c1ccc(-c2ccsc2)cc1)Nc1cc(Cl)cc(Cl)c1` (stereo not drawn) [Example 229], under setting [2], the Ki lay in the range of 51 to 500 nM.
Consider `O=C(NCC(CCNC1CCCC1)c1ccc(-c2cccs2)cc1)Nc1cc(Cl)cc(Cl)c1` (stereo not drawn) [Example 230], for which the inhibition constant Ki under setting [2] lay in the range of 51 to 500 nM.
The same measure, in the same setting: under `CN(C)CCCNCCC(CNC(=O)Nc1cc(Cl)cc(Cl)c1)c1ccc(-c2cccs2)cc1` (stereo not drawn) [Example 231] stands 51 to 500 nM; under `CN(C)CCCNCCC(CNC(=O)Nc1cc(Cl)cc(Cl)c1)c1ccc(-c2ccccc2Cl)cc1` (stereo not drawn) [Example 232], 51 to 500 nM; under `CN(C)CCCNCCC(CNC(=O)Nc1cc(Cl)cc(Cl)c1)c1ccc(-c2ccccc2)cc1` (stereo not drawn) [Example 233], 51 to 500 nM.
Regarding `CN(C)CCCNCCC(CNC(=O)Nc1cc(Cl)cc(Cl)c1)c1ccc(-c2ccsc2)cc1` (stereo not drawn) [Example 235], under setting [2], the Ki was 51 to 500 nM.
Still for that read-out and setting: the same measure for `O=C(NCC(CCNC1CCCC1)c1ccc(-c2cc(Cl)cc(Cl)c2)cc1)Nc1cc(Cl)cc(Cl)c1` (stereo not drawn) [Example 236]: 51 to 500 nM.
On to `CN(C)CCCNCCC(CNC(=O)Nc1cc(Cl)cc(Cl)c1)c1ccc(-c2ccc(F)cc2)cc1` (stereo not drawn) [Example 237], for which the inhibition constant (Ki) under setting [2] is 51 to 500 nM.
As to `COc1ccccc1-c1ccc(C(CCNC2CCCC2)CNC(=O)Nc2cc(Cl)cc(Cl)c2)cc1` (stereo not drawn) [Example 238], under setting [2], the Ki was 51 to 500 nM.
The same measure, in the same setting: under `COc1ccc(-c2ccc(C(CCNCCCN(C)C)CNC(=O)Nc3cc(Cl)cc(Cl)c3)cc2)c(OC)c1` (stereo not drawn) [Example 239] stands 51 to 500 nM; under `COc1ccc(-c2ccc(C(CCNCCCN(C)C)CNC(=O)Nc3cc(Cl)cc(Cl)c3)cc2)cc1` (stereo not drawn) [Example 240], 51 to 500 nM; under `COc1ccc(-c2ccc(C(CCNC3CCCC3)CNC(=O)Nc3cc(Cl)cc(Cl)c3)cc2)cc1` (stereo not drawn) [Example 241], 51 to 500 nM.
On to `O=C(NCC(CCNC1CCCC1)c1ccc(-c2ccc(O)cc2)cc1)Nc1cc(Cl)cc(Cl)c1` (stereo not drawn) [Example 242], for which, under setting [2], the Ki lay within 51 to 500 nM.
With `O=C(NCC(CCNC1CCCC1)c1ccc(-c2ccc(F)cc2)cc1)Nc1cc(Cl)cc(Cl)c1` (stereo not drawn) [Example 243], the Ki under setting [2] lay in the range of 51 to 500 nM.
The same measure, in the same setting: the same measure for `O=C(NCC(CCNC1CCCC1)c1ccc(-c2ccc(Cl)c(Cl)c2)cc1)Nc1cc(Cl)cc(Cl)c1` (stereo not drawn) [Example 245]: 51 to 500 nM; for `CN(C)CCCNCCC(CNC(=O)Nc1cc(Cl)cc(Cl)c1)c1ccc(-c2ccc(Cl)cc2)cc1` (stereo not drawn) [Example 246]: 51 to 500 nM; for `CN(C)CCCNCCC(CNC(=O)Nc1cc(Cl)cc(Cl)c1)c1ccc(-c2ccc(Cl)c(Cl)c2)cc1` (stereo not drawn) [Example 247]: 51 to 500 nM.
For the molecule `O=C(NCC(CCNC1CCCC1)c1ccc(-c2cccc(C(=O)O)c2)cc1)Nc1cc(Cl)cc(Cl)c1` (stereo not drawn) [Example 248], the Ki under setting [2] was in the range of 51 to 500 nM.
Still for that read-out and setting: the same measure for `Cc1ccc(-c2ccc(C(CCNC3CCCC3)CNC(=O)Nc3cc(Cl)cc(Cl)c3)cc2)cc1` (stereo not drawn) [Example 249]: 51 to 500 nM; for `O=C(NCC(CCNC1CCCC1)c1ccc(-c2ccc(C(F)(F)F)cc2)cc1)Nc1cc(Cl)cc(Cl)c1` (stereo not drawn) [Example 250]: 51 to 500 nM.
As to `CN(C)CCCNCCC(CNC(=O)Nc1cc(Cl)cc(Cl)c1)c1ccc(-c2ccc(O)cc2)cc1` (stereo not drawn) [Example 251], the Ki under setting [2] lay in the range of 51 to 500 nM.
Turning to `COc1ccccc1-c1ccc(C(CCNCCCN(C)C)CNC(=O)Nc2cc(Cl)cc(Cl)c2)cc1` (stereo not drawn) [Example 252], under setting [2], the Ki was 51 to 500 nM.
For the molecule `O=C(NCC(CCNC1CCCC1)c1ccc(-c2cc(C(F)(F)F)cc(C(F)(F)F)c2)cc1)Nc1cc(Cl)cc(Cl)c1` (stereo not drawn) [Example 253], under setting [2], the Ki fell in the range of 501 to 2500 nM.
On to `Cc1ccc(-c2ccc(C(CCNCCCN(C)C)CNC(=O)Nc3cc(Cl)cc(Cl)c3)cc2)cc1` (stereo not drawn) [Example 254], for which the Ki under setting [2] lay in the range of 501 to 2500 nM.
As for `CN(C)CCCNCCC(CNC(=O)Nc1cc(Cl)cc(Cl)c1)c1ccc(-c2ccc(C(F)(F)F)cc2)cc1` (stereo not drawn) [Example 255], the inhibition constant (Ki) under setting [2] was 501 to 2500 nM.
On the same count and under the same terms, under `CN(C)CCCNCCC(CNC(=O)Nc1cc(Cl)cc(Cl)c1)c1ccc(-c2cc(C(F)(F)F)cc(C(F)(F)F)c2)cc1` (stereo not drawn) [Example 256] stands 501 to 2500 nM.
Still for that read-out and setting: under `COc1cc(-c2ccc(C(CCNCCCN(C)C)CNC(=O)Nc3cc(Cl)cc(Cl)c3)cc2)cc(OC)c1OC` (stereo not drawn) [Example 257] stands 501 to 2500 nM; under `O=C(NCc1ccc(F)c(F)c1)NCC(CCN1CCC(N2CCCCC2)CC1)c1ccc(Cl)c(Cl)c1` (stereo not drawn) [Example 258], 51 to 500 nM; under `COc1cc(CNCCC(CNC(=O)Nc2ccc(Cl)c(Cl)c2)c2ccc(Cl)c(Cl)c2)cc(OC)c1OC` (stereo not drawn) [Example 259], 51 to 500 nM.
Regarding `CCOC(=O)N1CCC(NCCC(CNC(=O)Nc2ccc(F)c(Cl)c2)c2ccc(Cl)c(Cl)c2)CC1` (stereo not drawn) [Example 260], under setting [2], the Ki lay in the range of 51 to 500 nM.
The same measure, in the same setting: the same measure for `O=C(NCC(CCNCc1ccc2c(c1)OCO2)c1ccc(Cl)c(Cl)c1)Nc1ccc(F)c(Cl)c1` (stereo not drawn) [Example 261]: 51 to 500 nM; for `CCOC(=O)N1CCC(NCCC(CNC(=O)Nc2ccc(F)c(F)c2)c2ccc(Cl)c(Cl)c2)CC1` (stereo not drawn) [Example 262]: 51 to 500 nM; for `O=C(NCC(CCNC1CCC1)c1ccc(Cl)c(Cl)c1)Nc1ccc(F)c(Cl)c1` (stereo not drawn) [Example 263]: 501 to 2500 nM.
On the same count and under the same terms, under `CCOC(=O)N1CCC(NCCC(CNC(=O)Nc2ccc(F)c([N+](=O)[O-])c2)c2ccc(Cl)c(Cl)c2)CC1` (stereo not drawn) [Example 264] stands 501 to 2500 nM.
Same read-out and setting: the same measure for `O=C(NCC(CCNC1CCC1)c1ccc(Cl)c(Cl)c1)Nc1ccc(F)c(F)c1` (stereo not drawn) [Example 265]: 501 to 2500 nM; for `O=C(NCC(CCNC1CCCCC1)c1ccc(Cl)cc1)Nc1cc(Cl)cc(Cl)c1` (stereo not drawn) [Example 266]: 51 to 500 nM; for `O=C(NCC(CCNC1CCCC1)c1ccc(Cl)cc1)Nc1cc(Cl)cc(Cl)c1` (stereo not drawn) [Example 267]: 51 to 500 nM.
Take `Cc1ccc(C(CCNC2CCCCC2)CNC(=O)Nc2cc(Cl)cc(Cl)c2)cc1` (stereo not drawn) [Example 268]: under setting [2], the Ki is 51 to 500 nM.
The same measure, in the same setting: the same measure for `Cc1ccc(C(CCNC2CCCC2)CNC(=O)Nc2cc(C(F)(F)F)cc(C(F)(F)F)c2)cc1` (stereo not drawn) [Example 269]: 51 to 500 nM.
On the same count and under the same terms, the same measure for `Cc1ccc(C(CCNC2CCCCC2)CNC(=O)Nc2cc(C(F)(F)F)cc(C(F)(F)F)c2)cc1` (stereo not drawn) [Example 270]: 51 to 500 nM; for `Cc1ccc(C(CCNC2CCCC2)CNC(=O)Nc2cc(Cl)cc(Cl)c2)cc1` (stereo not drawn) [Example 271]: 51 to 500 nM; for `Cc1ccc(C(CCNC2CCC2)CNC(=O)Nc2cc(Cl)cc(Cl)c2)cc1` (stereo not drawn) [Example 272]: 51 to 500 nM.
Still for that read-out and setting: under `O=C(NCC(CCNC1CCC1)c1ccc(Cl)cc1)Nc1cc(Cl)cc(Cl)c1` (stereo not drawn) [Example 273] stands 51 to 500 nM; under `Cc1ccc(C(CCNC2CCC2)CNC(=O)Nc2cc(C(F)(F)F)cc(C(F)(F)F)c2)cc1` (stereo not drawn) [Example 274], 51 to 500 nM; under `Cc1ccc(C(CCNc2c(C)noc2C)CNC(=O)Nc2cc(Cl)cc(Cl)c2)cc1` (stereo not drawn) [Example 275], 501 to 2500 nM.
On to `CCOC(=O)N1CCC(NCCC(CNC(=O)Nc2cc(Cl)cc(Cl)c2)c2ccc(Cl)c(Cl)c2)CC1` (stereo not drawn) [Example 277], for which, under setting [2], the Ki fell in the range of 51 to 500 nM.
Still for that read-out and setting: under `O=C(NCC(CCNCCc1ccc(O)cc1)c1ccc(Cl)c(Cl)c1)Nc1ccc(Cl)c(Cl)c1` (stereo not drawn) [Example 278] stands 51 to 500 nM.
`O=C(NCC(CCNC1CCCC1)c1ccc(Cl)c(Cl)c1)Nc1ccc(Cl)c(Cl)c1` (stereo not drawn) [Example 279]: the Ki under setting [2] was 51 to 500 nM.
Turning to `O=C(NCC(CCNC1CCCC1)c1ccc(Cl)c(Cl)c1)Nc1cc(Cl)cc(Cl)c1` (stereo not drawn) [Example 280], the inhibition constant Ki under setting [2] was in the range of 51 to 500 nM.
Regarding `CCOC(=O)N1CCC(NCCC(CNC(=O)Nc2cccc(C(F)(F)F)c2)c2ccc(Cl)c(Cl)c2)CC1` (stereo not drawn) [Example 281], under setting [2], the Ki was 51 to 500 nM.
